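Values below derive from 48-hour exposures of cells grown in 96-well plates, with endpoints linearly interpolated between the two concentrations bracketing the appropriate inhibition level. At the TGI there is no net growth.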
Assays:
Experiment in all cases: NCI anticancer screen, dose series, 48 h
M19-MEL melanoma = tested on: M19-MEL melanoma
DMS 114 small cell lung = tested on: DMS 114 small cell lung
SNB-78 CNS = tested on: SNB-78 CNS
HOP-18 NSCLC = tested on: HOP-18 NSCLC
DLD-1 colon = tested on: DLD-1 colon
XF 498 CNS = tested on: XF 498 CNS
KM20L2 colon = tested on: KM20L2 colon
DMS 273 small cell lung = tested on: DMS 273 small cell lung
RXF-631 renal = tested on: RXF-631 renal

Row | Compound | TGI (M19-MEL melanoma) [µM] | TGI (DMS 114 small cell lung) [µM] | TGI (SNB-78 CNS) [µM] | TGI (HOP-18 NSCLC) [µM] | TGI (DLD-1 colon) [µM] | TGI (XF 498 CNS) [µM] | TGI (KM20L2 colon) [µM] | TGI (DMS 273 small cell lung) [µM] | TGI (RXF-631 renal) [µM]
1 | CCOc1ccc(/C(Cl)=C(\C=O)c2ccc(OC)c(OC)c2)cc1OCC | > 100 | 66.1 | > 100 | > 100 | > 100 | > 100 | > 100 | > 100 | –
2 | CC(C)CC(NC(=O)OC(C)(C)C)C(=O)Nc1ccc(Nc2nc(F)nc(-c3c4ccccc4c4n3CCS4)n2)cc1 (stereo not given) | – | 37.5 | 44.3 | 50.6 | 36.8 | 42.3 | 32.3 | 30.6 | –
3 | CN(C)C(=S)/N=c1\ssc(=S)n1Cc1ccccc1 | > 100 | 0.456 | > 100 | > 100 | > 55.1 | – | 0.388 | – | –
4 | Cc1ccc([N+](=O)[O-])cc1NC(=O)/C(=N/NC(=S)NN)C1SC(=S)NC1=O (stereo not given) | – | > 100 | > 100 | > 100 | > 100 | > 100 | > 100 | > 100 | –
5 | Nc1nc(SCc2ccc([N+](=O)[O-])cc2)nc2c1ncn2C1OC(CO)C(O)C1O (stereo not given) | > 100 | > 100 | > 100 | – | > 100 | > 100 | > 100 | > 100 | –
6 | O=C1c2ccccc2OP(=O)(OCC(F)(F)F)OC1(C(F)(F)F)C(F)(F)F (stereo not given) | > 100 | > 100 | > 100 | – | – | > 100 | > 100 | > 100 | –
7 | COc1ccc(N=Cc2ccc(N(CCC#N)S(=O)(=O)c3ccccc3)cc2)cc1 | > 100 | > 100 | > 100 | > 100 | > 100 | > 100 | > 100 | > 100 | > 100
8 | Cc1ccc(N2C(=O)CS/C2=C(\C#N)c2nc3ccccc3[nH]2)cc1 | > 100 | > 100 | – | > 100 | > 100 | > 100 | > 100 | > 100 | –
9 | CN(C)C(=S)/N=c1\ssc(=S)n1Cc1cccnc1 | > 46.6 | 3.89 | > 100 | > 100 | > 100 | 47.1 | 4.27 | > 100 | > 100
10 | CCC12CCCN(Cc3ccccc3)C1c1c(n(C)c3ccccc13)C(C(=O)OC)C2 (stereo not given) | > 239 | > 239 | – | – | > 239 | 118 | > 239 | > 239 | > 239
11 | CCOC(=O)/C=C/n1c2ccccc2c(=O)c2ccccc21 | > 100 | > 100 | – | – | > 100 | > 100 | > 100 | > 100 | –
12 | CN1c2ccccc2N(C(=O)c2ccc(Cl)cc2)C(CC(=O)O)c2cccn21 (stereo not given) | > 100 | > 100 | > 100 | – | > 100 | > 100 | > 100 | > 100 | –
13 | C=CCC(N(C)C(=O)[C@H](Cc1ccccc1)NC(=O)OCc1ccccc1)P(=O)(Oc1ccccc1)Oc1ccccc1 (stereo not given in full) | > 100 | > 100 | > 100 | – | > 100 | > 100 | > 100 | > 100 | –
14 | Nc1ccc2c(SCc3ccc([N+](=O)[O-])cc3)c3ccccc3nc2c1 | 26.5 | 29.8 | 63.7 | 26.5 | 6.04 | 27.7 | 31.6 | 39.2 | –
15 | COC(=O)CC1NC(=O)[C@@H]1C(C)O (stereo not given in full) | > 100 | > 100 | – | – | – | > 100 | > 100 | > 100 | –
16 | CC1CN(c2ccc(Cl)cc2)CC(C)OC(=O)O1 (stereo not given) | > 100 | > 100 | > 100 | – | > 100 | > 100 | > 100 | > 100 | –
17 | N#C/C(c1nc2ccccc2[nH]1)=c1\s/c(=C/c2ccc(Cl)cc2)c(=O)n1-c1ccccc1 | > 100 | > 100 | – | > 100 | > 100 | > 100 | > 100 | > 100 | –
